Patent US20240133870A1, “COMBINED TREATMENT FOR CANCER” (Yeda Research and Development Co. Ltd., priority 2021, published 2024)

Legend:
[1] = test system: HT-29 orthotopic xenograft colorectal tumors; experiment: EVOC of orthotopic colon tumors, pERK and H&E/BrDu; type: cell-based, human; settings: AZD4547 0.5 μM, 96 hours of incubation
From the text: 500-700 μmm^3 tumors were resected, sliced, and cultured ex-vivo. Following 4 days of drug treatment, slices were fixed and embedded in paraffin blocks. FFPE slices were stained by H&E, and the percentage of viable cancer cells was morphologically assessed on H&E stained sections by a pathologist as the ratio between viable cancer cell area and total cancer area (viable cancer cells plus necrotic cancer cells). […] Each black dot in a given treatment condition represents a different tumor. P-values were calculated by two-sided t-test. *** P<0.001 ** P<0.01. Error bars represent standard error. […] Names of the six secreted factors with the highest rScore are shown. Factors related to TNF pathways are marked in gray. Results represent the average of at least two experiments. […] Cohort size pre-treatment: 5-6, P-values of the difference on the last day of experiment were calculated by one-sided Mann-Whitney test. * P<0.05. […] Viability percentage was calculated based on the entire field of view per treatment combination. […] FFPE slices were stained by pERK and pERK activity was assessed by a pathologist. […]
For the ex-vivo experiments EVOCs from immunocompromised mice bearing human tumors were generated, as further described hereinbelow. For the in-vivo validation experiments, mice bearing subcutaneous tumors were used; and response was measured by evaluating tumor volume. […]

[2] = test system: SK-MEL-5 BRAF (V600E) melanoma cells; experiment: Co-culture of stroma (WI-38 or HS-5) and cancer cells; type: cell-based, human; settings: co-culture with HS-5; inhibitor added to vemurafenib
Method: SK-MEL-5 BRAF (V600E) melanoma cells were co-cultured with the lung-derived stromal cell line WI-38 or with the bone marrow-derived stromal cell line HS-5 with or without vemurafenib (4 μM). […] Vehicle—DMSO, EGFRi—gefitinib (0.1 μM), EGFRi/HER2i—lapatinib (10 nM), METi—crizotinib (0.1 μM), FGFRi—AZD4547 (50 nM), NFkB/TNFRi—CAPE (10 μM), TGFBRi-LY2109761 (0.5 μM), gp130i—SC144 (1 nM). […] Error bars represent standard error. […] Error bars represent standard error. […] Human BRAF (V600E) melanoma cell lines UACC62 or G361 were used to generate xenograft tumor models in various tissues of nude mice. When tumors reached a volume of 500-700 μmm^3, they were resected, sliced, and cultured ex-vivo in the presence of different drug combinations or DMSO control. Following 4 days of drug treatment, slices were fixed, embedded in paraffin blocks, and subjected to immunohistochemistry, using anti-pERK antibody, or to immuno-fluorescence, using anti-pFGFR1 antibody. BRAFi (vemurafenib, 4 μM), FGFRi (AZD4547, 2 μM). Scale bar represents 50 μm.
Four hours later, the melanoma BRAF (V600E) mutated cell line SK-MEL-5 was seeded on top of the stromal cells at a concentration of 1700 cells per well, or seeded without stroma. […] Concentrations of the inhibitors were based on dose curves with SK-MEL-5. For each inhibitor of potential mechanism of resistance, the maximal concentration with minimal effect (toxicity) on cell growth was selected (Cmax).
To compare rScore value of stroma-mediated resistance with or without a given inhibitor, the rScore values of each inhibitor in the presence of stroma, was calculated. As a reduction in rScore may stem from mere toxicity of the inhibitor, rather than the abrogation of the stroma mediated resistance, each inhibitor rScore was penalized by its toxicity.
rScoreinhibitor=rScoreinhibitor+(rScorestroma−rScoreinhibitor)*tOxicitY(Cmax)inhibitor

With AZD4547 the “H&E and BrDu staining of tissue” value [1] was “live and proliferating tissue” and the “abrogation of stroma-mediated resistance to vemurafenib” value [2] was “needed to abrogate the resistance effect of HS-5”.
